This note sets out measurements from patent publication US20070299084A1, “Indole Derivatives Useful for Treating Resistance to Antitumor Agents” (NIKEM RESE S.R.L., priority 2004, published 2007).

The target in series [1] is Vacuolar ATPase (bafilomycin sensitive ATPase activity) (Homo sapiens, UniProt P27449+Q13488). Briefly: Vacuolar ATPase inhibition in human osteoclastoma (hOc) microsomal fraction. To be noted: 30 min, 37° C., read-out: v-ATPase Activity (IC50, μM) hOc. It is filed as biochemical. As for the experimental part: 1.1 Determination of Vacuolar ATPase Inhibition in Human Osteoclastoma (hOc)
Sequence of Vacuolar ATPase (bafilomycin sensitive ATPase activity) (P38606 whole entry): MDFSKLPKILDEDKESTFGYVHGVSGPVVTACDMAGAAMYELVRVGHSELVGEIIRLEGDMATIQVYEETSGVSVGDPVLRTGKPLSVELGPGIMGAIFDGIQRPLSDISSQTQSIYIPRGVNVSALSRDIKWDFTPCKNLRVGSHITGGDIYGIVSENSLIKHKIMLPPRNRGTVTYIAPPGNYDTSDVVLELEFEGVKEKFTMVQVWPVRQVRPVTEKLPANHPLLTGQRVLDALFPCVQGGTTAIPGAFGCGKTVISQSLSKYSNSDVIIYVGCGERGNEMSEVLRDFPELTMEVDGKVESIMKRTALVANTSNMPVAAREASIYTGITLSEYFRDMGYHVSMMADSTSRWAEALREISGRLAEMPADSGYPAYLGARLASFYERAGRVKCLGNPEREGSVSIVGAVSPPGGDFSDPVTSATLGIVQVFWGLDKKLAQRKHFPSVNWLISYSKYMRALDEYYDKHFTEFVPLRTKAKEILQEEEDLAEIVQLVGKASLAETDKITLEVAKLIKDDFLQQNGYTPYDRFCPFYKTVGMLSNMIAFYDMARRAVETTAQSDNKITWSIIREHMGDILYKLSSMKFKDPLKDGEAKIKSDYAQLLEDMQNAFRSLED
Sequence of Vacuolar ATPase (bafilomycin sensitive ATPase activity) (Q13488 whole entry): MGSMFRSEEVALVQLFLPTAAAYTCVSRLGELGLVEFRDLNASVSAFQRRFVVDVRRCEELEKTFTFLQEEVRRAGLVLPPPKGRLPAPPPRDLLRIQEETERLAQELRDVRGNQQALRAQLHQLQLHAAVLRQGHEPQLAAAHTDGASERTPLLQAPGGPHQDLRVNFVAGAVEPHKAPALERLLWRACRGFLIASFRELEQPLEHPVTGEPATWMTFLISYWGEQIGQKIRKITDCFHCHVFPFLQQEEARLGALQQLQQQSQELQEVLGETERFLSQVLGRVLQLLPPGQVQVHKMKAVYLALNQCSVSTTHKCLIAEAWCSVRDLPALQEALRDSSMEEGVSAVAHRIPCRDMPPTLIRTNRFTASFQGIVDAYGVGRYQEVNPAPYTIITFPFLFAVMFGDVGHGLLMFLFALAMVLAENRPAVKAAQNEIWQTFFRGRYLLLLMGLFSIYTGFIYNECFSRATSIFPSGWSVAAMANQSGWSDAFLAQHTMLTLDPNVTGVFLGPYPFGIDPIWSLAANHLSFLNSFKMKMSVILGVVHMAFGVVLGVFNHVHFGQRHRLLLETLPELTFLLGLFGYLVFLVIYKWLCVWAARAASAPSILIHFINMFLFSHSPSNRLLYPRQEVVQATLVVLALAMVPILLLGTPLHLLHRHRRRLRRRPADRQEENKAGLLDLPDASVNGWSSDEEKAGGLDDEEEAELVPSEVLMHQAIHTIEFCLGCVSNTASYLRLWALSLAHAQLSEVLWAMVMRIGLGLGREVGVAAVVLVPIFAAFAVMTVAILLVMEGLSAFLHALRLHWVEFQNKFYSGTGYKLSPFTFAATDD
Sequence of Vacuolar ATPase (bafilomycin sensitive ATPase activity) (P27449 whole entry): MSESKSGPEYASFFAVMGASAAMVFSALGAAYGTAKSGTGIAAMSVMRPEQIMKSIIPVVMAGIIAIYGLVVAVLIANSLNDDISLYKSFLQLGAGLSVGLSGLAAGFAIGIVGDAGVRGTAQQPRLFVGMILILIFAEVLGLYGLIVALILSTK
Osteoclast-like giant cells isolated from human osteoclastoma are homogenized using a glass-teflon homogeniser (1000 rpm) and the material is centrifuged for 20 minutes at 6000 g. The resultant pellet is resuspended and centrifuged at 100000 g for 60 minutes to sediment the microsomal fraction. The resultant pellet is resuspended in medium at pH 7.4 and stored under liquid nitrogen.
Inhibition of bafilomycin sensitive ATPase activity is assayed by measuring the release of inorganic phosphate during 30 minutes of incubation, at 37° C., of the human osteoclastoma microsomal fraction in 96-well plates. The reaction medium contains 1 mM ATP, 10 mM Hepes-Tris buffer pH 8, 50 mM KCl, 5 μM valinomycin, 5 μM nigericin, 1 mM CDTA-Tris, 100 μM ammonium molybdate, 0.2 M sucrose and the microsomal fraction ([…] protein/ml). The reaction is initiated by adding MgSO4 and terminated, after 30 minutes, by adding 4 volumes of the reagent malachite green, prepared according to Chan K., Anal. Biochem. 157, 375-380, 1986.

The test system of series [2] is HT29 cells (human colon carcinoma). Put plainly: Antiproliferative activity, 72 h treatment, SRB assay, HT29. Format: cell-based. As to conditions: 72 h. treatment; read-out: Antiproliferative activity (IC50 ± S.D., μM) HT-29. (In general: In SRB staining, fixed cells bind dye roughly in proportion to their protein.)
For series [3], the system named is HT29/Mit cells (mitoxantrone-resistant human colon carcinoma, BCRP overexpression). Put plainly: Antiproliferative activity, 72 h treatment, SRB assay, HT29/Mit. As to conditions: read-out: Antiproliferative activity (IC50 ± S.D., μM) HT-29/Mit; 72 h. treatment. Here is the method: HT29 and HT29/Mit (line obtained by prolonged exposure to mitoxantrone, and characterised by overerexpression of BCRP, which confers cross resistance to topotecan, irinotecan and to its metabolite SN38): maintained in McCoy 5A medium+10% FCS.
The cells (HT29 and HT29/Mit:. 40,000 cells/ml, LoVo, LoVo/Dx and HCT116: 50,000 cells/ml) are seeded in 100 μl of the respective culture media in 96-well plates. 24 hours after seeding, an aliquot (10 μl) of drug at the various concentrations is added. In the samples in which the effect of the combination of two compounds is to be tested the inhibitor is added immediately before the cytotoxic. For each dose or combination of doses/drugs the effect of the treatment is determined in 4-8 replicates.
After 72 hours of treatment the antiproliferative effect is evaluated using the sulforhodamine B (SRB) assay: the cells are fixed by adding 25 μl of 50% TCA to each well and left for 1 hour at 4° C. After washing them with water and allowing them to dry, 100 μl of 0.4% SRB in 1% acetic acid are added and left for 30 minutes at room temperature. After 4 washes in 1% acetic acid, they are left to dry, then the dye fixed by the proteins is dissolved under basic conditions with 100 μl 10 mM cold Tris and the solution is read using a spectrophotometer at 550 nm.
Percentage cell growth is calculated as the optical density of treated samples compared to the optical density of controls (untreated cells).
The Combination Index (C.I.) was determined according to Kern's method, 1988 (who continued from Drewinko B, 1976) (Kern D. H., Cancer Res. 48, 117-121, 1988; Drewinko B., Cancer Biochem. Biophys. 1, 187-195, 1976) by means of the following formula: […], where SFa and SFb are the fractions of cells surviving to treatment with compound a and b, respectively; SFab is the fraction surviving to the combination of compounds a and b.

Series [4] has as its system HepG2 cells (human hepatic carcinoma). Put plainly: Antiproliferative activity, 48 h treatment, ATPlite luminescence assay, HepG2. To be noted: read-out: Antiproliferative activity (IC50 ± S.D., μM) HepG2. Format: cell-based. Here is the method: HepG2: maintained in EMEM medium+10% FCS.
24 hours after seeding, an aliquot (10 μl) of the drug at the various concentrations is added (for each concentration there are 3 replicates). After 48 hours of treatment the antiproliferative effect is evaluated with a luminescence assay (Perkin Elmer Life Sciences ATPlite):
50 μl of a lysis solution are added to each well followed by an equal volume of a solution containing luciferase and D-luciferin. The ATP present in all the metabolically active cells brings about the transformation reaction of D-luciferin, catalysed by luciferase, to produce a luminescent signal as described in the following scheme: ATP+D-luciferin+O2→Oxyluciferin+AMP+PPi+CO2+Light
The luminescence produced (expressed in counts per second, CPS) is measured by means of a microplate scintillation analyzer (Perkin Elmer Life Sciences Top Count).
Percentage inhibition of luminescence in the treated cells compared to the control is calculated; concentration-response curves are then analysed using Grafit v.5.0.

Where only a bound is given, the exact number is not on record here.

For `CO/C1=C\C(C)=C\[C@@H](C)[C@@H](O)[C@@H](C)C/C(C)=C/C=C/[C@H](OC)[C@@H]([C@@H](C)[C@@H](O)[C@H](C)[C@@]2(O)C[C@@H](O)[C@H](C)[C@@H](C(C)C)O2)OC1=O` [Bafilomycin A1, reference compound], the IC50 in series [1] is 0.0001 µM; in series [2] it was 0.003 ± 0.002 µM; in series [3] it was 0.005 µM; in series [4] it was less than 0.006 µM.
